Source: patent US20120316137A1, “Methods and Compositions for Treating Cancer” (priority 2009, published 2012)
Read-outs that look alike come from different tables or passages of the source.

Assays:
[1] = system: SNU16 gastric cancer cells with amplified FGFR2; assay: cells; conditions: Homo sapiens, SNU-16, read-out: Cell growth GI50 (nM)
From the text: (§1) Data are shown as mean (±SD) from 3 separate experiments tested in triplicate.

[2] = system: AN3CA endometrial cancer cells with mutant FGFR2 (N549K); assay: cells; conditions: Homo sapiens, AN3-CA, read-out: Cell growth GI50 (nM)
From the text: as §1

[3] = system: MDA-MB-453 breast cancer cells, mutant FGFR4 (Y367C); assay: cells; conditions: Homo sapiens, MDA-MB-453, read-out: Cell growth GI50 (nM)
From the text: as §1

[4] = system: FGFR2 signaling in SNU16 gastric cells (Amplified); assay: cells; conditions: Homo sapiens, SNU-16, read-out: Signaling IC50 (nM)
From the text: Cells were lysed in either SDS buffer or Phospho-Safe (Novagen, Gibbstown, N.J.) and protein lysates were immunoprecipitated overnight and/or immunoblotted with the indicated antibodies. Protein expression was quantified using Quantity One software (BioRad, Hercules, Calif.).

[5] = system: MGH-U3 bladder cancer cells, mutant FGFR3b (Y375C); assay: Cell growth assay (72 h); type: cell-based
From the text: as §1

[6] = system: OPM2 multiple myeloma cells, mutant FGFR3 (K650E); assay: cells; conditions: Homo sapiens, OPM-2, read-out: Cell growth GI50 (nM)
From the text: as §1

FGFR2 = FGFR2 (Homo sapiens, UniProt P21802); assay: Kinase assay (RBC); conditions: IC50 (nM), 10 μM ATP
Sequence of FGFR2 (P21802 481-770 limits assumed): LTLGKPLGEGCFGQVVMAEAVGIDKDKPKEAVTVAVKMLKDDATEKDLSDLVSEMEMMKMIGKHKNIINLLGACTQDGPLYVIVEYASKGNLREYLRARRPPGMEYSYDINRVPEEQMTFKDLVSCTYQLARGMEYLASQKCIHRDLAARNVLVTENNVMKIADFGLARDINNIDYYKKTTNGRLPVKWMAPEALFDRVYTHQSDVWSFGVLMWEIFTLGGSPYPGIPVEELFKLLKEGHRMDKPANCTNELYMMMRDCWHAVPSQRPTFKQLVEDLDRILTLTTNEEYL

RS4;11 cells (wt) = assay: Cell viability assay (72 h); conditions: Homo sapiens, RS4-11, 72 h, read-out: Cell viability IC50 (nM)
Method: (§2) Exponentially growing cell lines were plated into 96-well plates and incubated overnight at 37° C. […] Fluorescence was measured using a Wallac Victor microplate reader (PerkinElmer, Waltham, Mass.). […] Data are shown as mean (1 SD) from 3 separate experiments, each tested in triplicate.

[7] = system: EOL1 cells (FIP1L1-PDGFRα); assay: Cell viability assay (72 h); conditions: Homo sapiens, EOL1, 72 h, read-out: Cell viability IC50 (nM)
Method: as §2

[8] = system: KG1 cells (FGFR1OP2-FGFR1); assay: Cell viability assay (72 h); conditions: Homo sapiens, KG-1, 72 h, read-out: Cell viability IC50 (nM)
Method: as §2

[9] = system: Kasumi-1 cells (c-KIT N822K); assay: Cell viability assay (72 h); type: cell-based; conditions: Homo sapiens; Kasumi-1; 72 hours; read-out: Cell viability IC50
Method: as §2

MV4-11 cells (FLT3-ITD) = assay: Cell viability assay (72 h); conditions: Homo sapiens, MV4-11, 72 h, read-out: Cell viability IC50 (nM)
Method: as §2

[10] = system: KG1 cells (FGFR1-FGFR1OP2 fusion); assay: Cell growth assay (72 h); type: cell-based; conditions: Homo sapiens
From the text: as §1

FGFR4 = FGFR4 (Homo sapiens, UniProt P22455); assay: Kinase assay (RBC)
Sequence of FGFR4 (P22455 467-755 limits assumed): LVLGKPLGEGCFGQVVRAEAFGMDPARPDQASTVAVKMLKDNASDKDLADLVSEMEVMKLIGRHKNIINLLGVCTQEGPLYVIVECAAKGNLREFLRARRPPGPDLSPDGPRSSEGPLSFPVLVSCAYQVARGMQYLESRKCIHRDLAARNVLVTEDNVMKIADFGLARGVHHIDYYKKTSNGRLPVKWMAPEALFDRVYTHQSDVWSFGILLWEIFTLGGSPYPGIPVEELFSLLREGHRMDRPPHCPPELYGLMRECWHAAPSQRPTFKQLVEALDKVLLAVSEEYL

[11] = system: mononuclear cells from a CML accelerated phase patient harboring BCR-ABL^T315I; assay: Hematopoietic colony forming assay; conditions: methylcellulose, 14-18 days
[12] = system: FGFR2-mutant AN3CA tumor xenograft; assay: AN3CA xenograft, compound 1 and ridaforolimus (Example 9); type: in vivo, nude mice
Method: AN3CA cells were implanted into the right flank of nude mice. […] Mean tumor volumes (±SE; tumor volume=L×W^2×0.5) were calculated for each treatment group.

[13] = system: MFE-296 endometrial cancer cell line; assay: Combination cell growth assay (Chou and Talalay); type: cell-based; conditions: MFE-296 cells; cell growth; read-out: 1×EC50 concentration
[14] = system: AN3CA endometrial cancer cell line; assay: Combination cell growth assay (Chou and Talalay); type: cell-based; conditions: AN3CA cells; cell growth; read-out: 1×EC50 concentration
[15] = MGH-U3, read-out: Cell growth GI50
[16] = KG-1, read-out: Cell growth GI50 (nM)

Compound | GI50 [1] [nM] | GI50 [2] [nM] | GI50 [3] [nM] | IC50 [4] [nM] | GI50 [5, 15] [nM] | GI50 [6] [nM] | further results
Cc1cc2c(F)c(Oc3ncnn4cc(OC[C@@H](C)O)c(C)c34)ccc2[nH]1 [BMS-540215] | > 1000 | > 1000 | > 10000 | > 1000 | > 1000 | 6200 | IC50 (FGFR2): 202 nM
CCN(CC)CCNC(=O)c1c(C)[nH]c(/C=C2\C(=O)Nc3ccc(F)cc32)c1C [Sunitinib, sunitinib] | – | – | – | – | – | – | IC50 (RS4;11 cells (wt)): > 100 nM; IC50 [7]: 3 nM; IC50 [8]: > 100 nM; IC50 [9]: 56 nM; IC50 (MV4-11 cells (FLT3-ITD)): 12 nM
COc1cc2c(Oc3ccc4[nH]c(C)cc4c3F)ncnc2cc1OCCCN1CCCC1 [AZD 2171] | – | 34 | > 1000 | 148 | 296 | 296 | GI50 ([10]; KG-1, KG1, read-out: Cell growth GI50): 23 nM
CNC(=O)c1cc(Oc2ccc(NC(=O)Nc3ccc(Cl)c(C(F)(F)F)c3)cc2)ccn1 [Sorafenib, sorafenib] | – | – | – | – | – | – | IC50 (RS4;11 cells (wt)): > 100 nM; IC50 [7]: 0.5 nM; IC50 [8]: > 100 nM; IC50 [9]: 59 nM; IC50 (MV4-11 cells (FLT3-ITD)): 4 nM
CCN(CC)CCCCNc1ncc2cc(-c3cc(OC)cc(OC)c3)c(NC(=O)NC(C)(C)C)nc2n1 [PD 173074] | 20 | 187 | 1660 | – | 850 | 83 | IC50 (FGFR4): 367 nM; GI50 [10, 16]: 10 nM
Cc1cn(-c2cc(NC(=O)c3ccc(C)c(Nc4nccc(-c5cccnc5)n4)c3)cc(C(F)(F)F)c2)cn1 [nilotinib] | – | – | – | – | – | – | effect on colony formation [11]: neither nilotinib nor dasatinib showed any effect
COC(=O)c1ccc2c(c1)NC(=O)/C2=C(\Nc1ccc(N(C)C(=O)CN2CCN(C)CC2)cc1)c1ccccc1 [BIBF 1120] | 496 | 684 | 1540 | 496 | – | 297 | GI50 [10, 16]: 221 nM; GI50 ([5]; read-out: Cell growth GI50 (nM), MGH-U3): > 1000 nM
CO[C@H]1C[C@@H]2CC[C@@H](C)[C@@](O)(O2)C(=O)C(=O)N2CCCC[C@H]2C(=O)O[C@H]([C@H](C)C[C@@H]2CC[C@@H](OP(C)(C)=O)[C@H](OC)C2)CC(=O)[C@H](C)/C=C(\C)[C@@H](O)[C@@H](OC)C(=O)[C@H](C)C[C@H](C)/C=C/C=C/C=C/1C [Ridaforolimus, reference compound] | – | – | – | – | – | – | TGI (%) ([12]; Ridaforolimus 0.3 mg/kg alone): 48%; TGI (%) ([12]; Ridaforolimus 1 mg/kg alone): 70%; EC50 [13]: 1 nM; EC50 [14]: 0.4 nM
